SMILES strings stand for the structures.

Experiment [1] has as its system Phosphatidylinositol 4,5-bisphosphate 3-kinase catalytic subunit alpha isoform (Homo sapiens), P42336 [H1047Y]. Conditions: at 10 µM.
The target in experiment [2] is Inositol-tetrakisphosphate 1-kinase (Homo sapiens) (UniProt Q13572). In words: Selectivity interaction (ActivX KiNativ screen (ex vivo kinase selectivity in human PBMCs)) EUB0001619a ITPK1. The experiment is classed as cell-based. To be noted: PBMC, at 1 µM.
The target of experiment [3] is Serine/threonine-protein kinase MARK2 (Homo sapiens) (UniProt Q7KZI7). The experiment is described as follows: Selectivity interaction (ActivX KiNativ screen (ex vivo kinase selectivity in human PBMCs)) EUB0001619a MARK2. The experiment is classed as cell-based. Conditions: PBMC, at 1 µM.
The target of a further experiment is Adenosine receptor A2a (Homo sapiens, UniProt P29274). The experiment is described as follows: Selectivity interaction (Eurofins CEREP Diversity Profile (receptors and ion channels)) EUB0000279b ADORA2A. To be noted: at 10 µM.
The target of experiment [4] is Tyrosine-protein kinase receptor Tie-1 (Homo sapiens) (UniProt P35590). To be noted: at 10 µM.
The target of experiment [5] is Serine/threonine-protein kinase PAK 3 (Homo sapiens) (UniProt O75914). In words: Selectivity interaction (Kinase screening (Nanosyn)) EUB0000604a PAK3.
For experiment [6], the target named is Ribosomal protein S6 kinase alpha-1 (Homo sapiens, UniProt Q15418). In words: Selectivity interaction (Kinase screening (Nanosyn)) EUB0000604a RPS6KA1.
Experiment [7] addresses Tyrosine-protein kinase Fes/Fps (Homo sapiens) (UniProt P07332). The experiment is described as follows: Selectivity interaction (KinaseProfiler screening (Millipore)) EUB0000601a FES. Conditions: at 3 µM.
The target in experiment [8] is Tyrosine-protein kinase ABL2 (Homo sapiens, UniProt P42684). The experiment is described as follows: Selectivity interaction (ActivX KiNativ screen (kinase selectivity in THP-1 cell lysates)) EUB0000639a ABL2. To be noted: lysate, at 0.2 µM. The class given is subcellular.
For experiment [9], the target named is Serine/threonine-protein kinase 24 (Homo sapiens) (UniProt Q9Y6E0). In words: Selectivity interaction (Kinase panel (Invitrogen)) EUB0000639a STK24. To be noted: at 200 nM.
The next experiment deals with Activated CDC42 kinase 1 (Homo sapiens, UniProt Q07912). The experiment is described as follows: Selectivity interaction (KinomeScan (DiscoverX)) EUB0000045b TNK2.
In experiment [10] the target is cGMP-inhibited 3',5'-cyclic phosphodiesterase 3A (Homo sapiens, UniProt Q14432). In words: Selectivity interaction (Safety Panel 44tm (Eurofins)) EUB0000162b PDE3A. Conditions: at 10 µM.
The target of experiment [11] is RAC-alpha serine/threonine-protein kinase (Homo sapiens, UniProt P31749). The experiment is described as follows: Selectivity interaction (Ambit KINOMEscan and KiNATiv profiling in Jurkat cells) EUB0000090b AKT1. The class given is cell-based. To be noted: at 1 µM.
For experiment [12], the target named is Serine/threonine-protein kinase PLK1 (Homo sapiens, UniProt P53350). The experiment is described as follows: Selectivity interaction (Ambit KINOMEscan and KiNATiv profiling in Jurkat cells) EUB0000090b PLK1. The experiment is classed as cell-based. To be noted: at 1 µM.
For another experiment, the target named is Insulin receptor (Homo sapiens, UniProt P06213).
Experiment [13] is described as follows: Selectivity interaction (KinomeScan (DiscoverX)) EUB0001049a CDK2H. Conditions: at 1 µM.
The next experiment has as its target Progesterone receptor (Homo sapiens, UniProt P06401). In words: Selectivity interaction (Progesteron receptor agonist/antagonist FRET assay, human recombinant) EUB0000877a PGR.
The target of a further experiment is Aurora kinase B (Homo sapiens, UniProt Q96GD4). In words: Selectivity interaction (KinomeScan (DiscoverX)) EUB0000655a AURKB. To be noted: at 10 µM.
In experiment [14] the target is T1, Serine/threonine-protein kinase 17A (Homo sapiens) (UniProt Q9UEE5).
T1 sequence (whole entry): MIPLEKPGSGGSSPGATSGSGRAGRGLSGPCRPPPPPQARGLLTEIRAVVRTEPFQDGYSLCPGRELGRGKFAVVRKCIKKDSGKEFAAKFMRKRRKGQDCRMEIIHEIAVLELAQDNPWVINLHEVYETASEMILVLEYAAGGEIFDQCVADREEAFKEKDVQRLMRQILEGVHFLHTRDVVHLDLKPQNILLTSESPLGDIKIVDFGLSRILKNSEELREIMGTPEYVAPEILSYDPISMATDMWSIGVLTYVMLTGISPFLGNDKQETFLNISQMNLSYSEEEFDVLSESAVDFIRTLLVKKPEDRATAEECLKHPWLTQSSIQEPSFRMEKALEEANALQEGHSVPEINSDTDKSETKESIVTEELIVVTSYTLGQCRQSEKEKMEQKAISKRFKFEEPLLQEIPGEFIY
In words: Selectivity interaction (KinomeScan (DiscoverX)) EUB0000655a STK17A. Conditions: at 10 µM.

The target of experiment [15] is Tyrosine-protein kinase FRK (Homo sapiens) (UniProt P42685). The experiment is described as follows: Selectivity interaction (KinomeScan (DiscoverX)) EUB0000655a FRK. To be noted: at 10 µM.
The target in experiment [16] is Protein polybromo-1 (Homo sapiens) (UniProt Q86U86). The experiment is described as follows: Selectivity interaction (Bromodomain panel (DSF asssay)) EUB0000270b PBRM1.
Experiment [17] addresses Ribosomal protein S6 kinase alpha-4 (Homo sapiens) (UniProt O75676). In words: Selectivity interaction (KinomeScan (DiscoverX)) EUB0000618a RPS6KA4. To be noted: at 10 µM.
In experiment [18] the target is Calcium/calmodulin-dependent protein kinase type 1G (Homo sapiens) (UniProt Q96NX5). The experiment is described as follows: Selectivity interaction (Kinase panel (DSF assay)) EUB0001558a CAMK1G.
Experiment [19] relates to Tyrosine-protein kinase ABL1 (Homo sapiens), P00519 [E255K]. The experiment is described as follows: (§1) Selectivity interaction (KinomeScan (DiscoverX)) EUB0001079a ABL1. To be noted: at 1 µM.
Experiment [20] concerns Tyrosine-protein kinase ABL1 (Homo sapiens), P00519 [F317I]. The experiment is described as §1. Conditions: at 1 µM.
For experiment [21], the system named is Tyrosine-protein kinase ABL1 (Homo sapiens), P00519 [F317L]. The description is as §1. Conditions: at 1 µM.
Experiment [22] concerns Tyrosine-protein kinase ABL1 (Homo sapiens), P00519 [H396P]. The description is as §1. To be noted: at 1 µM.
For experiment [23], the system named is Tyrosine-protein kinase ABL1 (Homo sapiens), P00519 [M351T]. The experiment is described as §1. To be noted: at 1 µM.
The subject of experiment [24] is Tyrosine-protein kinase ABL1 (Homo sapiens), P00519 [Q252H]. Described as §1. Conditions: at 1 µM.
For experiment [25], the system named is Tyrosine-protein kinase ABL1 (Homo sapiens), P00519 [T315I]. The description is as §1. Conditions: at 1 µM.
Experiment [26] deals with Tyrosine-protein kinase ABL1 (Homo sapiens), P00519 [Y253F]. Described as §1. To be noted: at 1 µM.
Experiment [27] concerns the target Tyrosine-protein kinase ABL1 (Homo sapiens, UniProt P00519). The description is as §1. To be noted: at 1 µM.
The target in experiment [28] is Tyrosine-protein kinase HCK (Homo sapiens) (UniProt P08631). In words: Selectivity interaction (KinomeScan (DiscoverX)) EUB0001079a HCK. To be noted: at 1 µM.
In experiment [29] the target is Serine/threonine-protein kinase mTOR (Homo sapiens, UniProt P42345). The experiment is described as follows: Selectivity interaction (Kinase panel (KiNativ target engagement assay in Jurkat cells)) EUB0001635a MTOR. Conditions: Selectivity number of off-targets 0.0, Selectivity number of targets 233.0, Source Knowledge https://www.sciencedirect.com/science/article/pii/S2451945619300674?via%3Dihub, at 1 µM. The class given is cell-based.

Sequence of Activated CDC42 kinase 1 (Q07912 whole entry, looked up): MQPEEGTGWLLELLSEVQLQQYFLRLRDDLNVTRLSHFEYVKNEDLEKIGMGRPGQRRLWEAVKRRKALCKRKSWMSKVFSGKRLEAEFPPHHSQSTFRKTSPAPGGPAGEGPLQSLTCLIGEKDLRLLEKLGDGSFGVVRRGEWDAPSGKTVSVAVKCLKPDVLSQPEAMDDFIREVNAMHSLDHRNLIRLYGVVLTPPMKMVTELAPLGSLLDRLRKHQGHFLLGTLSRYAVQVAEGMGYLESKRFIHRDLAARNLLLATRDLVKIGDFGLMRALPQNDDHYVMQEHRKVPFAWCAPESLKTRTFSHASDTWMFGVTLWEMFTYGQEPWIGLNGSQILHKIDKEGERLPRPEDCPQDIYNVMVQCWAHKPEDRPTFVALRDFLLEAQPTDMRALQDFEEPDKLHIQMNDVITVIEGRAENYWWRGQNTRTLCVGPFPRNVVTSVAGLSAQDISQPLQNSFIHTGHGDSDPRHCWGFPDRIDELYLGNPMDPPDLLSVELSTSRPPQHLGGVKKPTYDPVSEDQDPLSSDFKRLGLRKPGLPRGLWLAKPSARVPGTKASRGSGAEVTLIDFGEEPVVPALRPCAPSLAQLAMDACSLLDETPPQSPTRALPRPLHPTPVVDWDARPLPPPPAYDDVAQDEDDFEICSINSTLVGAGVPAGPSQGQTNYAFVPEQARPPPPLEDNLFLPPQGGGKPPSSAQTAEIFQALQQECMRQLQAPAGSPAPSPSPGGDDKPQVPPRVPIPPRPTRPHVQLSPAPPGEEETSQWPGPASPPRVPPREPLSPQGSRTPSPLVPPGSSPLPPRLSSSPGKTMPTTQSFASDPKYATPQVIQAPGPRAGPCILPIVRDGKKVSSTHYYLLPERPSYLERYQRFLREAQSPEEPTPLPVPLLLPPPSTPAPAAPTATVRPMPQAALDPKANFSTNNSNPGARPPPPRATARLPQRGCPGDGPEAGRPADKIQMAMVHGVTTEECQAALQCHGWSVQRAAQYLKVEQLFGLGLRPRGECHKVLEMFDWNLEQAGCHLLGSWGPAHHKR
Sequence of Insulin receptor (P06213 28-758 limits assumed): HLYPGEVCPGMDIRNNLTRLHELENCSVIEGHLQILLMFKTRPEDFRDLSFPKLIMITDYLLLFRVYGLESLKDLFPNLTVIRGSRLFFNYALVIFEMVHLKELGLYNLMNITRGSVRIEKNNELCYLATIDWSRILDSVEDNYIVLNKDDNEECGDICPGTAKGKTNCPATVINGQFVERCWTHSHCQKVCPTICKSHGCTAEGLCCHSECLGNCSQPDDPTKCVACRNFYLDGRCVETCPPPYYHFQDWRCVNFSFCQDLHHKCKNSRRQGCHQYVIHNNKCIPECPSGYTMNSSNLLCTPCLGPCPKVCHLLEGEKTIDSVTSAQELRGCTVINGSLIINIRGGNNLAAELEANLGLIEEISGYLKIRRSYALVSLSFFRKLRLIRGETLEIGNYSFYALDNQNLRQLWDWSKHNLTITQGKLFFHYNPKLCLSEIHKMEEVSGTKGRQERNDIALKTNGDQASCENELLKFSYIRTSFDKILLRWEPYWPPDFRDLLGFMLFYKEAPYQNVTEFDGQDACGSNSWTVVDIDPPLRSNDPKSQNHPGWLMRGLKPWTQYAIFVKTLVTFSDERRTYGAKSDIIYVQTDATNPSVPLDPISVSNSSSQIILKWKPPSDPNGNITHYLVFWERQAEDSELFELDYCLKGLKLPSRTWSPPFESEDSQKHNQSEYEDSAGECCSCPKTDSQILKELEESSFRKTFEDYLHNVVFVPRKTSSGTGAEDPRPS
Sequence of Insulin receptor (P06213 763-1382 limits assumed): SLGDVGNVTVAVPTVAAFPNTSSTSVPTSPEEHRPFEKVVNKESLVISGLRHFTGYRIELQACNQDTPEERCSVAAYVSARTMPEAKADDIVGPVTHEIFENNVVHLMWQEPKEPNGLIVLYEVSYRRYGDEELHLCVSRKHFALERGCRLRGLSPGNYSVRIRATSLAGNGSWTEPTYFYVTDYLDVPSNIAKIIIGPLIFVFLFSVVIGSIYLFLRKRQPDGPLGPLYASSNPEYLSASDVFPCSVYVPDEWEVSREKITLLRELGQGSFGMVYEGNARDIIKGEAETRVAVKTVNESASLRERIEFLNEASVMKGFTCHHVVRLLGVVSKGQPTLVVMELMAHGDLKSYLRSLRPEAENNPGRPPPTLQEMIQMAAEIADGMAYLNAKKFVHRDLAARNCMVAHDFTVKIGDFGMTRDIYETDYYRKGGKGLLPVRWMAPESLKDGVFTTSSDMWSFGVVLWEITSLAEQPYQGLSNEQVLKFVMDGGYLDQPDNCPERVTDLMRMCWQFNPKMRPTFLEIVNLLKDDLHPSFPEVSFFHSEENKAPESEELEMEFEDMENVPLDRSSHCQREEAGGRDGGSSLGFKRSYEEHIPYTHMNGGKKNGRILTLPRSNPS
Sequence of RAC-alpha serine/threonine-protein kinase (P31749 whole entry): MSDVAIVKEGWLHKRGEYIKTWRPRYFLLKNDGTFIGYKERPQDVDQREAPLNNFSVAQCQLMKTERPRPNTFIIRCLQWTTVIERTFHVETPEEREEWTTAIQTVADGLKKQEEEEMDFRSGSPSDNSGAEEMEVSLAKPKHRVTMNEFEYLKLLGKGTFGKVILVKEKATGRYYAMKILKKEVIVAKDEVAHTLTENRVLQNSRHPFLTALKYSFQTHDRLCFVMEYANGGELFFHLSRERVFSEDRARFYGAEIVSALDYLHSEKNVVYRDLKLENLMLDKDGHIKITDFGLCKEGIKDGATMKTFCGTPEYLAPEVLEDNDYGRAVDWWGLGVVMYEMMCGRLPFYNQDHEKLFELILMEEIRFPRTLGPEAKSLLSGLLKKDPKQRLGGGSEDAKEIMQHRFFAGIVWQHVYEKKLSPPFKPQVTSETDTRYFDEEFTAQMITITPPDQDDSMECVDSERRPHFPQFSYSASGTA
Sequence of Inositol-tetrakisphosphate 1-kinase (Homo sapiens) (Q13572 whole entry): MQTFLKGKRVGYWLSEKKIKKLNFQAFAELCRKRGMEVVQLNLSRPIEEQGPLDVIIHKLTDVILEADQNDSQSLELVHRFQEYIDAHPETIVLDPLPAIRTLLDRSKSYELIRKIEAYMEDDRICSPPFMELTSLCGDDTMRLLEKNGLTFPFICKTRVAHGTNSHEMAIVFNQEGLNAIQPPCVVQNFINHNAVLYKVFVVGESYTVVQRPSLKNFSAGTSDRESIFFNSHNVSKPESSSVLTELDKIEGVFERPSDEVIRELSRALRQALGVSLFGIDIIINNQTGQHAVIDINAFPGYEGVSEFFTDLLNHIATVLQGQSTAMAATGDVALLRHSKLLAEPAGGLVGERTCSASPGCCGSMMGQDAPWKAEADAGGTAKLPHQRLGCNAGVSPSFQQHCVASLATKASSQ
Sequence of Serine/threonine-protein kinase PLK1 (P53350 whole entry): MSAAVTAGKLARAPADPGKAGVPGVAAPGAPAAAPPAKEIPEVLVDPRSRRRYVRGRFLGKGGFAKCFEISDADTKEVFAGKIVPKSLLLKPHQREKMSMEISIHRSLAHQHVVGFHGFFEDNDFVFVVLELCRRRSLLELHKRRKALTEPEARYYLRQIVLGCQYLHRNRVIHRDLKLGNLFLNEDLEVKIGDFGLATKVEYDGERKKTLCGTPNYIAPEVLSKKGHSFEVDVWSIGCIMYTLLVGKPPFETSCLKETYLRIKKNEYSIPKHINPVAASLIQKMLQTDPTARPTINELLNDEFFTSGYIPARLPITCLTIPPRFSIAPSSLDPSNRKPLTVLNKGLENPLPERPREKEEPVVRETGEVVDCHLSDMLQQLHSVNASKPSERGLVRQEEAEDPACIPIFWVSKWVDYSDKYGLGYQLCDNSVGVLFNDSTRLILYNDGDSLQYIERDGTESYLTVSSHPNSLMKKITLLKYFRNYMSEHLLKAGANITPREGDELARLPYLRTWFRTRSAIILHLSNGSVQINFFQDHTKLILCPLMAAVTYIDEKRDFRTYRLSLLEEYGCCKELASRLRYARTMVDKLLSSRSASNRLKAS
Sequence of Progesterone receptor (P06401 whole entry): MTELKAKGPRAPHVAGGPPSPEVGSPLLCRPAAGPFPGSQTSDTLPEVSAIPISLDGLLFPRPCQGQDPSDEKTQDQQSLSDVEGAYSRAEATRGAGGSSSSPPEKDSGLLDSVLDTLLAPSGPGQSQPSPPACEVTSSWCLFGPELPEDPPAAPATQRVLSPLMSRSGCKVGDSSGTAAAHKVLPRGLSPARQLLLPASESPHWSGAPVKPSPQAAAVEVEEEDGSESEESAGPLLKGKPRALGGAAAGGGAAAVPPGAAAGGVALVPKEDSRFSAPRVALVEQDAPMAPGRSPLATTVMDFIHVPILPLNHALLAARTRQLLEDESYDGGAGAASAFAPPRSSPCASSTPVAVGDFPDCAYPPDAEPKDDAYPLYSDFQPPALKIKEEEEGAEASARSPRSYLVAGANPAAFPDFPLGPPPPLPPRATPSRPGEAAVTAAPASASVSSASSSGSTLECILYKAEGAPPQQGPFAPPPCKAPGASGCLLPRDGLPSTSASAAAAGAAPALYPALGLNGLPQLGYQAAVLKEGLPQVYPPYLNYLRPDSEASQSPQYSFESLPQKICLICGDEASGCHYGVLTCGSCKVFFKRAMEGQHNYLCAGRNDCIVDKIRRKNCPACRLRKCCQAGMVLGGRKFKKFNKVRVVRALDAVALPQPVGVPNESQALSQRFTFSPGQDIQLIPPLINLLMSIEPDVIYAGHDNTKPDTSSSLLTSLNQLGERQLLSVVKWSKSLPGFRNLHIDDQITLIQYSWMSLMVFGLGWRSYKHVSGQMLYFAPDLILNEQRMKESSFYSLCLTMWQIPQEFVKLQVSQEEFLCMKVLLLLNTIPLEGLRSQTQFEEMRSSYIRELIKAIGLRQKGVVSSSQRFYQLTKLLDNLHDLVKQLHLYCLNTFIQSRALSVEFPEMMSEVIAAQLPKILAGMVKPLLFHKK

In turn, `COCC(=O)NC/C=C/c1ccc2ncnc(Nc3ccc(Oc4ccc(C)nc4)c(C)c3)c2c1` [CP-724714] came in with a % of control in experiment [1] of 47%.

For `N#Cc1cccc(-c2c[nH]c3ncnc(N4CCOCC4)c23)c1`, the % of inhibition in experiment [2] is -28%; in [3], 27%.

For `CC(=O)c1cc(-c2ccccc2OCC2CC2)c2ncccn12`, at Adenosine receptor A2a, the % of control was found to be 80%.

In the case of `Cc1cc([C@@H](C)Nc2ccccc2C(=O)O)c2nc(N3CCOCC3)cc(=O)n2c1` [AZD-6482], the % of control in [4] stood at 100%.

`Cc1cnc(Nc2ccc(F)cc2Cl)nc1-c1c[nH]c(C(=O)N[C@H](CO)c2cccc(Cl)c2)c1`: the figures for the % of inhibition in experiment [5] and in experiment [6] were 3% and 4%, respectively.

Regarding `CCc1cc(Nc2nccc(-c3c(-c4ccc(OC)c(C(=O)Nc5c(F)cccc5F)c4)nc4ccccn34)n2)c(OC)cc1N1CCC(N2CCN(S(C)(=O)=O)CC2)CC1`, in [7], the % of inhibition amounted to 82%.

For the compound `CC[C@@H]1[C@H](F)C(=O)N[C@@H]1COc1nccc2cc(C(N)=O)c(OC)cc12` [ZIMLOVISERTIB], the figures for the % of inhibition in [8] and in experiment [9] were -42.6% and 23.2%, respectively.

Turning to `C=CC(=O)Nc1cc(-n2c(=O)ccc3cnc4ccc(-c5ccc(NS(C)(=O)=O)cc5)cc4c32)ccc1C`, the % of control on Activated CDC42 kinase 1 (at 1 µM) and on Activated CDC42 kinase 1 (at 10 µM) was 100% each time.

`CN(C)C(=O)Cn1cc(-c2ccc(-c3cncc4ccccc34)cc2)cn1` registered a % of control in [10] of 82%.

On to `CN(C)C/C=C/C(=O)Nc1ccc(C(=O)N2CCCC(Nc3ncc(Cl)c(-c4c[nH]c5ccccc45)n3)C2)cc1` (stereo not given), for which the values for the % of control in experiment [11] and in [12] were 92% and 90%, respectively.

`CCc1cccc(CC)c1NC(=O)c1nn(C)c2c1CCc1cnc(Nc3ccc(C(=O)NC4CCN(C)CC4)cc3OC(F)(F)F)nc1-2` yielded an IC50 on Insulin receptor greater than 10 µM.

In [13], `COc1cc(Nc2nc(C)cc(-c3cnn4nc(OC)ccc34)n2)cc(C(F)(F)F)c1` had a % of control of 100%.

Consider `CCC(=O)N1CC[C@H](Nc2ncnc3c2CN(c2cnc(OC)c(C(F)(F)F)c2)CC3)C1` [LENIOLISIB], for which, on Progesterone receptor, the 50% inhibitory concentration (IC50) is greater than 30 µM.

As to `CN(C)CCOc1ccc(-c2nc(-c3ccncc3)c(-c3ccc4c(c3)CC/C4=N\O)[nH]2)cc1`, the % of control is 100% on Aurora kinase B, 69% in experiment [14] and 96% in experiment [15].

In experiment [16], `Cc1cc(CN)cc(C)c1-c1ncn(C)c1-c1cncn1C` yielded a dTM of -1.53 K.

Regarding `O[C@H]1CC[C@H](Nc2ncc3nc(Nc4c(F)cc(F)cc4F)n([C@H]4CCOC4)c3n2)CC1`, the % of control in experiment [17] came out at 100%.

As for `CC(C)(O)[C@H](F)CN1Cc2cc(NC(=O)c3cnn4cccnc34)c(N3CCOCC3)cc2C1=O`, the dTM in experiment [18] came out at 0.4 K.

Turning to `Nc1cnc(N2CCc3cc(S(=O)(=O)Nc4c(F)cc(Cl)cc4F)cc(N4CCCC4=O)c32)nc1` [TP-020n], the % of control in experiment [19] amounted to 85%; in experiment [20] it was 100%; in experiment [21], 99%; in experiment [22], 94%; in experiment [23], 100%; in [24] it was 100%. Moreover, the % of control in [25] is 100%; in experiment [26], 94%; in [27], 100%; in experiment [28] it was 100%.

On to `C=CC(=O)Nc1ccc(C(=O)Nc2[nH]nc3c2CN(C(=O)N[C@H](CN(C)C)c2ccccc2)C3(C)C)cc1`, for which, in [29], the % of engagement was -11.9%.

A word on the IC50: it is the concentration that gives 50% inhibition.

The values are drawn from ChEMBL document CHEMBL5465560, “Selectivity Literature for EUbOPEN Chemogenomic Library” (2024).
